Laboratory results from US6447748B1, “Benzamide compounds for cancer imaging and therapy” (Research Corporation Technologies, Inc., priority 1993, dated 2002).
Values joined by “and” are separate entries in the source; they are usually repeats but may differ in a detail not shown here. Identical values can stand only once. Like-named read-outs stand apart in the source and are kept apart here.

Tests used:
[1] = Biodistribution of 2-[125I]BP and 3-[125I]BP in Sprague Dawley rats; assay type: in vivo; details: for Biodistribution Blood / Biodistribution Brain / Biodistribution Heart / Biodistribution Kidney / Biodistribution Liver / Biodistribution Lung / Biodistribution Muscle / Biodistribution Spleen / Biodistribution Thyroid: average of four rats
Method: A similar procedure was performed with 2-[^125I]BP and 3-[^125I]BP but blood samples were only collected at 1, 6 and 24 hours.

[2] = for Biodistribution Blood / Biodistribution Bone / Biodistribution Brain / Biodistribution Gonads / Biodistribution Heart / Biodistribution Kidney / Biodistribution Liver / Biodistribution Lunq / Biodistribution Muscle / Biodistribution Spleen / Biodistribution Thyroid: Wistar male rats, average of four rats
Method: Male Wistar rats (200-230g), while under anesthesia, were injected intravenously with 0.1 ml of a saline solution containing 20% ethanol solution of 4-[^125I]BP (4-5 μCi). At 1, 4, 6 and 24 hr. after injection, blood samples were collected by cardiac puncture and the […] were sacrificed immediately thereafter by cardiectomy while under anesthesia. The organs of interest were subsequently excised, blotted with tissue paper, weighed, and the radioactivity was counted using a Packard automatic counter (autogamma 5650). The % injected dose/g (% ID/g) values were determined by comparison of tissue radioactivities with suitably diluted aliquots of the injected 4-[^125I]BP dose divided by the weight of the organ.

[3] = Biodistribution of 4-[125I]PEMP in Sprague Dawley rats; assay type: in vivo; details: for Biodistribution Blood / Biodistribution Bone / Biodistribution Brain / Biodistribution Heart / Biodistribution Kidney / Biodistribution Liver / Biodistribution Lung / Biodistribution Muscle / Biodistribution Spleen / Biodistribution Thyroid: average of four rats
Method: Balb/c nu/nu mice (17-22 g) were injected intravenously with 0.2 ml of a saline solution containing [^125I]PAB (5-6 μCi). […] The values obtained were normalized to a mouse weighing 20 g.
Biodistribution experiments were performed to assess the clearance of N-[(4-[^125I]-iodophenyl)ethyl]-N-methyl-2-(1-piperidinyl)-ethylamine, 4-[^125I]PEMP. The compound was prepared according to the procedure described in Example 16. For in vivo studies, Sprague Dawley rats were used. Animal biodistribution assays were performed according to the procedure described in Example 11.

[4] = tested on: human melanoma xenograft tumors (A2058); assay: Scintigraphic imaging of nude mice bearing human melanoma xenografts; assay type: in vivo, Balb/c nu/nu mice
Method: A2058 cells, derived from a brain metastasis of human malignant melanoma (Todaro et al. 1980 Proc. Natl. Acad. Sci. USA 77: 5258) were obtained from the National Institutes of Health. A human lung adenocarcinoma cell line, NCI-838, was obtained from the National Cancer Institute. These cells were grown in DMEM2 medium (Dulbecco's modification of Eagle's medium, […]) supplemented with 10% fetal bovine serum and 0.03% L-glutamine.
Balb/c nu/nu mice (17-22 g) bearing human melanoma or non-small cell lung carcinoma xenograft tumors were injected intravenously with 0.2 ml of saline solution containing [^131I]PAB or [^131I]DAB (150-200 μCi). The animals were anesthetized with ketamine containing rompun before the imaging studies. The images were obtained using a scintigraphic camera with a pin-hole collimator at 6 and 24 hr. post injection.

O=C(NC1CCN(Cc2ccccc2)CC1)c1cccc([125I])c1 [3-[^125I]BP, ^125I-(N-Benzylpiperidin-4-yl)-3-iodobenzamide]
clearance [1]: fast clearance from the blood
Biodistribution Blood ([1]; 1 hr.): 0.75 % ID/whole organ and 0.75 ± 0.05 % ID/whole organ
Biodistribution Brain ([1]; 1 hr.): 0.61 ± 0.04 % ID/whole organ
Biodistribution Heart ([1]; 1 hr.): 0.15 ± 0.01 % ID/whole organ
Biodistribution Kidney ([1]; 1 hr.): 3.49 ± 0.23 % ID/whole organ
Biodistribution Liver ([1]; 1 hr.): 13.35 ± 0.62 % ID/whole organ
Biodistribution Lung ([1]; 1 hr.): 0.82 ± 0.07 % ID/whole organ
Biodistribution Muscle ([1]; 1 hr.): 9.36 ± 0.58 % ID/whole organ
Biodistribution Spleen ([1]; 1 hr.): 0.47 ± 0.02 % ID/whole organ
Biodistribution Thyroid ([1]; 1 hr.): 0.13 ± 0.02 % ID/whole organ
Biodistribution Blood ([1]; 6 hr.): 0.55 ± 0.13 % ID/whole organ
Biodistribution Brain ([1]; 6 hr.): 0.53 ± 0.26 % ID/whole organ
Biodistribution Heart ([1]; 6 hr.): 0.07 ± 0.01 % ID/whole organ
Biodistribution Kidney ([1]; 6 hr.): 2.25 ± 0.16 % ID/whole organ
Biodistribution Liver ([1]; 6 hr.): 9.06 ± 0.71 % ID/whole organ
Biodistribution Lung ([1]; 6 hr.): 0.43 ± 0.05 % ID/whole organ
Biodistribution Muscle ([1]; 6 hr.): 1.23 ± 0.49 % ID/whole organ
Biodistribution Spleen ([1]; 6 hr.): 0.37 ± 0.05 % ID/whole organ
Biodistribution Thyroid ([1]; 6 hr.): 0.53 ± 0.26 % ID/whole organ
Biodistribution Blood ([1]; 24 hr.): 0.52 ± 0.05 % ID/whole organ
Biodistribution Brain ([1]; 24 hr.): 0.81 ± 0.07 % ID/whole organ
Biodistribution Heart ([1]; 24 hr.): 0.15 ± 0.01 % ID/whole organ
Biodistribution Kidney ([1]; 24 hr.): 1.75 ± 0.13 % ID/whole organ
Biodistribution Liver ([1]; 24 hr.): 6.65 ± 1.63 % ID/whole organ
Biodistribution Lung ([1]; 24 hr.): 1.05 ± 0.04 % ID/whole organ
Biodistribution Muscle ([1]; 24 hr.): 03.7 ± 0.44 % ID/whole organ
Biodistribution Spleen ([1]; 24 hr.): 0.65 ± 0.08 % ID/whole organ
Biodistribution Thyroid ([1]; 24 hr.): 3.43 ± 0.21 % ID/whole organ

O=C(NC1CCN(Cc2ccccc2)CC1)c1ccc([125I])cc1 [4-[^125I]BP, ^125I-(N-Benzylpiperidin-4-yl)-4-iodobenzamide]
Biodistribution Blood ([2]; 1 hr.): 0.04 ± 0.00 % ID/g
Biodistribution Bone ([2]; 1 hr.): 0.24 ± 0.01 % ID/g
Biodistribution Brain ([2]; 1 hr.): 1.24 ± 0.13 % ID/g
Biodistribution Gonads ([2]; 1 hr.): 0.39 ± 0.03 % ID/g
Biodistribution Heart ([2]; 1 hr.): 0.75 ± 0.05 % ID/g
Biodistribution Kidney ([2]; 1 hr.): 2.10 ± 0.15 % ID/g
Biodistribution Liver ([2]; 1 hr.): 4.77 ± 0.13 % ID/g
Biodistribution Lunq ([2]; 1 hr.): 5.05 ± 0.26 % ID/g
Biodistribution Muscle ([2]; 1 hr.): 0.24 ± 0.02 % ID/g
Biodistribution Spleen ([2]; 1 hr.): 1.60 ± 0.10 % ID/g
Biodistribution Thyroid ([2]; 1 hr.): 0.07 ± 0.01 % ID/g
Biodistribution Blood ([2]; 4 hr.): 0.02 ± 0.00 % ID/g
Biodistribution Bone ([2]; 4 hr.): 0.24 ± 0.05 % ID/g
Biodistribution Brain ([2]; 4 hr.): 1.29 ± 0.05 % ID/g
Biodistribution Gonads ([2]; 4 hr.): 0.30 ± 0.02 % ID/g
Biodistribution Heart ([2]; 4 hr.): 0.74 ± 0.04 % ID/g
Biodistribution Kidney ([2]; 4 hr.): 2.05 ± 0.02 % ID/g
Biodistribution Liver ([2]; 4 hr.): 7.76 ± 0.36 % ID/g
Biodistribution Lunq ([2]; 4 hr.): 5.22 ± 0.78 % ID/g
Biodistribution Muscle ([2]; 4 hr.): 0.20 ± 0.02 % ID/g
Biodistribution Spleen ([2]; 4 hr.): 1.51 ± 0.19 % ID/g
Biodistribution Thyroid ([2]; 4 hr.): 0.12 ± 0.00 % ID/g
Biodistribution Blood ([2]; 6 hr.): 0.04 ± 0.00 % ID/g
Biodistribution Bone ([2]; 6 hr.): 0.44 ± 0.03 % ID/g
Biodistribution Brain ([2]; 6 hr.): 1.23 ± 0.08 % ID/g
Biodistribution Gonads ([2]; 6 hr.): 0.34 ± 0.01 % ID/g
Biodistribution Heart ([2]; 6 hr.): 0.75 ± 0.02 % ID/g
Biodistribution Kidney ([2]; 6 hr.): 2.10 ± 0.08 % ID/g
Biodistribution Liver ([2]; 6 hr.): 7.20 ± 0.40 % ID/g
Biodistribution Lunq ([2]; 6 hr.): 4.85 ± 0.17 % ID/g
Biodistribution Muscle ([2]; 6 hr.): 0.12 ± 0.02 % ID/g
Biodistribution Spleen ([2]; 6 hr.): 1.57 ± 0.12 % ID/g
Biodistribution Thyroid ([2]; 6 hr.): 0.23 ± 0.05 % ID/g
Biodistribution Blood ([2]; 24 hr.): 0.02 ± 0.00 % ID/g
Biodistribution Bone ([2]; 24 hr.): 0.47 ± 0.07 % ID/g
Biodistribution Brain ([2]; 24 hr.): 1.24 ± 0.06 % ID/g
Biodistribution Gonads ([2]; 24 hr.): 0.34 ± 0.01 % ID/g
Biodistribution Heart ([2]; 24 hr.): 0.65 ± 0.03 % ID/g
Biodistribution Kidney ([2]; 24 hr.): 1.54 ± 0.05 % ID/g
Biodistribution Liver ([2]; 24 hr.): 5.37 ± 0.53 % ID/g
Biodistribution Lunq ([2]; 24 hr.): 3.70 ± 0.38 % ID/g
Biodistribution Muscle ([2]; 24 hr.): 0.12 ± 0.01 % ID/g
Biodistribution Spleen ([2]; 24 hr.): 1.47 ± 0.28 % ID/g
Biodistribution Thyroid ([2]; 24 hr.): 0.29 ± 0.04 % ID/g
clearance from the blood pool ([2]; Wistar rats): cleared quickly
crossing of the blood brain barrier ([2]; Wistar rats, retained in the brain after 24 hours): crossed the blood brain barrier
in vivo dehalogenation (thyroid activity after 24 hours) ([2]; rat, in vivo): no in vivo dehalogenation

CN(CCc1ccc([125I])cc1)CCN1CCCCC1 [4-[^125I]PEMP, N-[(4-[^125I]-iodophenyl)ethyl]-N-methyl-2-(1-piperidinyl)-ethylamine]
clearance [3]: rapid clearance from the liver, lungs and kidneys
Biodistribution Blood ([3]; 1 hr.): 1.82 ± 0.20 % ID/whole organ
Biodistribution Bone ([3]; 1 hr.): 0.23 ± 0.00 % ID/whole organ
Biodistribution Brain ([3]; 1 hr.): 1.79 ± 0.21 % ID/whole organ
Biodistribution Heart ([3]; 1 hr.): 0.30 ± 0.02 % ID/whole organ
Biodistribution Kidney ([3]; 1 hr.): 4.57 ± 0.88 % ID/whole organ
Biodistribution Liver ([3]; 1 hr.): 16.56 ± 2.19 % ID/whole organ
Biodistribution Lung ([3]; 1 hr.): 4.91 ± 0.23 % ID/whole organ
Biodistribution Muscle ([3]; 1 hr.): 15.60 ± 3.04 % ID/whole organ
Biodistribution Spleen ([3]; 1 hr.): 2.52 ± 0.49 % ID/whole organ
Biodistribution Thyroid ([3]; 1 hr.): 0.19 ± 0.02 % ID/whole organ
Biodistribution Blood ([3]; 6 hr.): 2.59 ± 0.32 % ID/whole organ
Biodistribution Bone ([3]; 6 hr.): 0.28 ± 0.01 % ID/whole organ
Biodistribution Brain ([3]; 6 hr.): 0.57 ± 0.01 % ID/whole organ
Biodistribution Heart ([3]; 6 hr.): 0.18 ± 0.00 % ID/whole organ
Biodistribution Kidney ([3]; 6 hr.): 1.45 ± 0.03 % ID/whole organ
Biodistribution Liver ([3]; 6 hr.): 6.39 ± 0.48 % ID/whole organ
Biodistribution Lung ([3]; 6 hr.): 1.22 ± 0.12 % ID/whole organ
Biodistribution Muscle ([3]; 6 hr.): 11.73 ± 0.63 % ID/whole organ
Biodistribution Spleen ([3]; 6 hr.): 0.96 ± 0.10 % ID/whole organ
Biodistribution Thyroid ([3]; 6 hr.): 0.20 ± 0.05 % ID/whole organ
Biodistribution Blood ([3]; 24 hr.): 1.01 ± 0.12 % ID/whole organ
Biodistribution Bone ([3]; 24 hr.): 0.17 ± 0.00 % ID/whole organ
Biodistribution Brain ([3]; 24 hr.): 0.23 ± 0.00 % ID/whole organ
Biodistribution Heart ([3]; 24 hr.): 0.05 ± 0.00 % ID/whole organ
Biodistribution Kidney ([3]; 24 hr.): 0.50 ± 0.02 % ID/whole organ
Biodistribution Liver ([3]; 24 hr.): 1.83 ± 0.16 % ID/whole organ
Biodistribution Lung ([3]; 24 hr.): 0.34 ± 0.03 % ID/whole organ
Biodistribution Muscle ([3]; 24 hr.): 5.55 ± 1.25 % ID/whole organ
Biodistribution Spleen ([3]; 24 hr.): 0.28 ± 0.03 % ID/whole organ
Biodistribution Thyroid ([3]; 24 hr.): 0.58 ± 0.03 % ID/whole organ

CCN(CC)CCNC(=O)c1ccc([131I])cc1 [[^131I]DAB, ^131I-N-(diethylaminoethyl)4-iodobenzamide, reference compound]
detection in the tumor, scintigraphic image ([4]; 6 and 24 hrs. post injection): no [^131I]DAB was detected in the tumor
uptake in the liver, scintigraphic image ([4]; 6 and 24 hrs. post-administration): considerable uptake
